What all share (assay): NCI anticancer screen, dose series, 48 h
In experiment [1] the test system is PC-3.
The test system of experiment [2] is HOP-62.
Experiment [3] concerns OVCAR-3.
Experiment [4] relates to NCI-H522.
The subject of experiment [5] is UACC-257.
For experiment [6], the system named is Hs-578T.
Experiment [7] has as its system OVCAR-8.
Experiment [8] concerns HCT-15.
In experiment [9] the test system is SK-MEL-2.
In experiment [10] the test system is K562.
For experiment [11], the system named is SW-620.
Experiment [12] has as its system KM12.
Experiment [13] concerns HCT-116.
In experiment [14] the test system is MOLT-4.
The subject of experiment [15] is HT-29.
Experiment [16] deals with HOP-92.
For experiment [17], the system named is TK-10.
Experiment [18] deals with COLO 205.
The subject of experiment [19] is SF-539.
In experiment [20] the test system is T47D.

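Grown in 96-well plates, cells were treated for 48 hours with each compound at five concentrations. Insufficient inhibition: endpoint recorded as highest concentration tested. Abbreviation: GI50, concentration required for 50% inhibition of growth.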 Calls of active or inactive are those of the source. Cut-off read from the data, not from the text of the source: active = GI50 up to about 1.1 µM and inactive = higher. Some results are limits rather than exact numbers.

On to `Cn1c(=O)c2c(nc(N3CCOCC3)n2CCCNCC(O)c2ccc(O)c(O)c2)n(C)c1=O` (stereo not given), for which the GI50 in experiment [1], in [2], in [3], in experiment [4], in experiment [5] and in experiment [6] was > 100 µM (inactive) each time. In addition, the GI50 in [7] was 25.4 µM (inactive); in experiment [8], over 100 µM; in experiment [9] it was > 100 µM (inactive); in experiment [10] it was > 100 µM (inactive); in [11], > 100 µM (inactive); in [12], > 100 µM (inactive). The GI50 in experiment [13] is > 100 µM (inactive); in experiment [14], 20.8 µM (inactive); in experiment [15] it was > 100 µM (inactive); in experiment [16], > 100 µM (inactive); in [17], > 100 µM (inactive); in experiment [18], > 100 µM (inactive). Further, the GI50 in experiment [19] and in experiment [20] was > 100 µM (inactive) each time.

These data come from ChEMBL document CHEMBL1201862, “PubChem BioAssay data set” (2004).
